Assays:
Assay in all cases: relative viability (nuclei count vs DMSO), 5 days (fraction); higher = more cells survive
TPCA-1 + Palbociclib = compound: C1=CC(=CC=C1C2=CC(=C(S2)NC(=O)N)C(=O)N)F [TPCA-1] + CC(=O)c1c(C)c2cnc(Nc3ccc(N4CCNCC4)cn3)nc2n(C2CCCC2)c1=O [Palbociclib] (partner 0.5 µM)
How it was run: (§1)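 Lung cancer cell lines, seeded in 1536-well plates, were treated the following day by pin tool with a single drug or with five library-drug doses (not always all listed) in √10 steps on top of a fixed anchor-drug dose. Cells were fixed and nuclei stained in one step after 5 days, and nuclei were counted. Relative viability is the nuclei count for treated wells divided by that for vehicle wells, reported as medians of duplicate plates.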

TPCA-1 + Vorinostat = compound: C1=CC(=CC=C1C2=CC(=C(S2)NC(=O)N)C(=O)N)F [TPCA-1] + O=C(CCCCCCC(=O)Nc1ccccc1)NO [Vorinostat] (partner 1 µM)
How it was run: as §1

TPCA-1 + Linsitinib = compound: C1=CC(=CC=C1C2=CC(=C(S2)NC(=O)N)C(=O)N)F [TPCA-1] + C[C@]1(O)C[C@@H](c2nc(-c3ccc4ccc(-c5ccccc5)nc4c3)c3c(N)nccn32)C1 [Linsitinib] (partner 1 µM)
How it was run: as §1

[1] = compound: C[C@]12O[C@H](C[C@]1(O)CO)n1c3ccccc3c3c4c(c5c6ccccc6n2c5c31)CNC4=O [Lestaurtinib] + C[C@]1(O)C[C@@H](c2nc(-c3ccc4ccc(-c5ccccc5)nc4c3)c3c(N)nccn32)C1 [Linsitinib] (partner 1 µM)
How it was run: as §1

| Cell Line | relative viability (TPCA-1 + Palbociclib; first compound 0.04 µM) | relative viability (TPCA-1 + Palbociclib; first compound 0.1265 µM) | relative viability (TPCA-1 + Palbociclib; first compound 0.4 µM) | relative viability (TPCA-1 + Palbociclib; first compound 1.265 µM) | relative viability (TPCA-1 + Palbociclib; first compound 4 µM) | relative viability (TPCA-1 + Vorinostat; first compound 0.04 µM) | relative viability (TPCA-1 + Vorinostat; first compound 0.1265 µM) | relative viability (TPCA-1 + Vorinostat; first compound 0.4 µM) | relative viability (TPCA-1 + Vorinostat; first compound 1.265 µM) | relative viability (TPCA-1 + Vorinostat; first compound 4 µM) | relative viability (TPCA-1 + Linsitinib; first compound 0.04 µM) | relative viability (TPCA-1 + Linsitinib; first compound 0.1265 µM) | relative viability (TPCA-1 + Linsitinib; first compound 0.4 µM) | relative viability (TPCA-1 + Linsitinib; first compound 1.265 µM) | relative viability (TPCA-1 + Linsitinib; first compound 4 µM) | relative viability ([1]; first compound 0.005 µM) | relative viability ([1]; first compound 0.01581 µM) | relative viability ([1]; first compound 0.05 µM) | relative viability ([1]; first compound 0.1581 µM) | relative viability ([1]; first compound 0.5 µM) |
| --- | --- | --- | --- | --- | --- | --- | --- | --- | --- | --- | --- | --- | --- | --- | --- | --- | --- | --- | --- | --- |
| NCI-H2170 | 0.413 | 0.404 | 0.417 | 0.391 | 0.275 | 0.965 | 0.881 | 0.779 | 0.724 | 0.628 | – | – | – | – | – | – | – | – | – | – |
| HCC-366 | – | 0.346 | 0.397 | 0.328 | 0.192 | – | 0.288 | 0.359 | 0.285 | 0.0534 | 0.72 | 0.568 | 0.807 | 0.458 | 0.427 | 0.678 | 0.694 | 0.28 | 0.257 | 0.109 |
| NCI-H2347 | 0.457 | 0.462 | 0.427 | 0.424 | 0.461 | 0.8 | 0.551 | 0.803 | 0.527 | 0.516 | 1.14 | 1.02 | 0.899 | 0.931 | 0.903 | 1.06 | 1.05 | 0.86 | 0.575 | 0.55 |
| COR-L 105 | 0.419 | 0.457 | 0.419 | 0.379 | 0.359 | 1.02 | 0.709 | 0.766 | 0.628 | 0.391 | 0.959 | 1.03 | 0.801 | 0.862 | 0.781 | 1.11 | 0.873 | 0.692 | 0.502 | 0.337 |
| 201T | 0.376 | 0.362 | 0.385 | 0.386 | 0.363 | 1.02 | 0.951 | 0.99 | 0.937 | 0.886 | 1.03 | 0.982 | 1.09 | 1.09 | 0.835 | 1.03 | 0.987 | 0.992 | 0.926 | 0.937 |
| NCI-H2126 | 0.388 | 0.382 | 0.364 | 0.355 | 0.3 | 0.843 | 0.695 | 0.891 | 0.559 | 0.238 | 0.752 | 0.657 | 0.709 | 0.724 | 0.595 | 0.725 | 0.735 | 0.573 | 0.605 | 0.585 |
| LC-2-ad | 0.467 | 0.465 | 0.49 | 0.489 | 0.421 | 0.742 | 0.69 | 0.705 | 0.716 | 0.155 | 0.92 | 0.71 | 0.833 | 0.807 | 0.331 | 0.824 | 0.819 | 0.372 | 0.323 | 0.157 |
| NCI-H2085 | – | 0.47 | 0.489 | 0.443 | 0.46 | – | 0.803 | 0.803 | 0.781 | 0.514 | 0.901 | 0.859 | 1 | 0.912 | 0.926 | 0.952 | 1.01 | 1.04 | 0.901 | 0.819 |
| NCI-H358 | 0.152 | 0.157 | 0.137 | 0.109 | 0.108 | 0.695 | 0.576 | 0.634 | 0.409 | 0.168 | 0.902 | 0.557 | 0.691 | 0.487 | 0.339 | 0.622 | 0.494 | 0.311 | 0.301 | 0.187 |
| H3255 | 0.275 | 0.292 | 0.285 | 0.293 | 0.279 | 0.82 | 0.461 | 0.819 | 0.694 | 0.512 | 1.06 | 0.826 | 0.95 | 0.866 | 0.708 | 0.986 | 1.07 | 0.864 | 0.668 | 0.457 |
| NCI-H2228 | 0.865 | 0.593 | 0.801 | 0.543 | 0.308 | 0.733 | 0.813 | 0.933 | 0.501 | 0.567 | 0.789 | 0.723 | 0.627 | 0.825 | 0.455 | 0.892 | 0.812 | 0.402 | 0.284 | 0.37 |
| CAL-12T | 0.585 | 0.507 | 0.445 | 0.416 | 0.172 | 0.763 | 0.523 | 0.762 | 0.733 | 0.568 | 0.868 | 0.754 | 0.73 | 0.763 | 0.411 | 0.805 | 0.84 | 0.774 | 0.565 | 0.416 |
| A-427 | 0.555 | 0.507 | 0.545 | 0.561 | 0.553 | 0.891 | 0.806 | 0.927 | 0.912 | 0.227 | 1.13 | 1.06 | 1.17 | 1.09 | 1.12 | 1.17 | 1.12 | 1.01 | 0.631 | 0.658 |
| HARA | 0.249 | 0.298 | 0.282 | 0.27 | 0.176 | 0.55 | 0.51 | 0.528 | 0.433 | 0.361 | 0.916 | 0.856 | 1.05 | 0.924 | 0.804 | 1.02 | 1.09 | 0.648 | 0.453 | 0.198 |
| NCI-H1793 | 0.358 | 0.301 | 0.303 | 0.355 | 0.213 | 0.619 | 0.61 | 0.967 | 0.674 | 0.236 | 1.05 | 0.674 | 0.934 | 0.683 | 0.727 | 0.897 | 0.816 | 0.467 | 0.876 | 0.566 |
| NCI-H2009 | 0.254 | 0.204 | 0.25 | 0.174 | 0.19 | 0.746 | 0.785 | 0.693 | 0.757 | 0.675 | 1.25 | 1.18 | 1.11 | 1.19 | 1.06 | 1.25 | 1.23 | 1.09 | 1.01 | 0.581 |

From the supplement of paper PMC10307832
